These results are taken from patent publication US9192589B2, “Chalcones as enhancer of antimicrobial agents” (priority 2009, dated 2015).

Molecules are shown by their SMILES. Converted amounts (≈) assume the structure as drawn. Like-named read-outs stand apart in the source and are kept apart here.

Broadly, the MIC is the smallest concentration in the dilution series that meets the test's criterion for growth inhibition.

One test has as its system A. viscosus. Put plainly: MIC assay using A. viscosus as reference organism (96-well, OD610). It counts as cell-based. The following applies: Actinomyces viscosus, compound alone, 0.5x TSB, overnight 37° C. As for the experimental part: (§1) Actinomyces viscosus (ATCC#43146) was grown in trypticase soy broth supplemented with 0.6% yeast extract (TSB-YE) at 37° C., static culture. For mixed species assays, the source of bacteria was a continuous culture chemostat inoculated with A. viscosus, Lactobacillus casei (ATCC #334), Streptococcus oxalis (ATCC #35037), Fusobacterium nucleatum (ATCC #10953), and Veilonella parvula (ATCC #17745). This mixed culture was maintained in a specialized complex medium in a continuous culture chemostat at 37° C.

Another test deals with Actinomyces viscosus. Put plainly: MIC of antibacterial agents alone and in combination with CK-4. The note with it: A. viscosus. It counts as cell-based. An excerpt:
(§2) The checkerboard method is the most frequently used method to access the antimicrobial combinations in vitro. The term “checkerboard” refers to the pattern (of tubes or microtiter plate wells) formed by multiple dilutions of two drugs being tested (Eliopoulos G M, Moellering R C. Antimicrobial Combinations, in: Antibiotics in Laboratory Medicine: USA: Williams & Wilkins). In the present study the checkerboard consisted of columns in which each tube (or well) contains the same amount of the standard drug (antibacterial/antifungal/anti-TB/antiviral) being diluted along the x-axis and rows in which each tube (or well) contains the same amount of the potentiator being diluted on the y-axis. As a result each square in the checkerboard (which represents one tube/well or plate) contained a unique combination of the standard drug and potentiator. The concentration range of standard drug in the present study was 64 μg/ml to 0.03 μg/ml, whereas the potentiator was tested in the range of 500 μg/ml to 0.2 μg/ml. This checkerboard technique can be performed with liquid or semisolid (agar) media.
(§3) In the agar method the agar (Mueller Hinton agar, Middlebrook 7H10 agar) was autoclaved and allowed to cool to 55° C. to 50° C. The combination of the standard drug and the potentiator was added to the agar. Serial two fold dilutions of each of standard drug and the potentiator were prepared in appropriate solvents. In order to maintain the desired concentrations of both agar and drugs, and to rule out the effect of solvent, the volume of solvent (containing standard drug or potentiator) added to agar was kept small (i.e. ≦5% of the total volume). After the agar plates have been poured and allowed to dry, the bacteria to be tested were applied to the surface of agar with a replicating device designed to deliver a standard inoculum (approx 10^4 cfu/spot). The plates were incubated at 37° C. for 24 hrs (3 weeks in case of Mycobacterium tuberculosis).
(§4) The above-mentioned checkerboard was also performed with liquid media in a microtiter plate format. This method was used to study the combination of antibacterial/antifungal/antiviral drugs with potentiator.
(§5) Minimum Inhibitory Concentration (MIC) of triclosan alone and in combination with the above mentioned chalcone compound was performed against Streptococcus mutans, Actinomyces viscosus and Fusobacterium nucleatum, using method described in the study design.
(§6) Minimum Inhibitory Concentration (MIC) of magnolol alone and in combination with the above mentioned chalcone compound was performed against Streptococcus mutans, Actinomyces viscosus and Fusobacterium nucleatum, using method described in the study design.
(§7) Minimum Inhibitory Concentration (MIC) of honokiol alone and in combination with the above mentioned chalcone compound was performed against Streptococcus mutans, Actinomyces viscosus and Fusobacterium nucleatum, using method described in the study design.

A further test deals with Fusobacterium nucleatum. Described as above. It counts as cell-based. The following applies: F. nucleatum.
Source text: as §2, §3, §4, §5, §6, §7

Another test deals with Streptococcus mutans. Described as above. The note with it: S. mutans. Format: cell-based.
Source text: as §2, §3, §4, §5, §6, §7

For another test, the system named is A. Viscosus biofilm. Description: Inhibition of single species biofilm formation (BEC50, crystal violet). Format: cell-based, Actinomyces viscosus. The note with it: 24 hours. As for the experimental part:
as §1
To assess the bioenhancing ability of CK-4, inhibition of single species biofilm formation tests were conducted. Actives of interest were plated in the first column of a sterile 384-well culture plate and serial twofold dilutions were performed across the plate in 0.5× TSB. First generation cultures of A. Viscosus bacteria were grown overnight in TSB-YE. Cultures were diluted to an OD610˜0.2 in 0.5×TSB and plated in the wells containing serial dilutions of actives. Plates were incubated for 24 hours at 37° C. to allow growth and biofilm formation to occur.
Following incubation, supernatants were removed from the plate and remaining biofilms were stained with 0.03% Grain's crystal violet. Stained plates were read on a Perkin Elmer EnVision microplate reader for absorbance at 590 nm.

Test [1] deals with Streptococcus mutans, Actinomyces viscosus and Fusobacterium nucleatum. Put plainly: Fold reduction in MIC over the three oral bacteria. It counts as cell-based. The following applies: in combination with CK-4; over S. mutans, A. viscosus and F. nucleatum.
Source text: as §2, §3, §4, §5
Minimum Inhibitory Concentration (MIC) of magnolol alone and in combination with the above mentioned chalcone compound was performed against Streptococcus mutans, Actinomyces viscosus and Fusobacterium nucleatum, using method described in the study design. […]

Molecule `COc1cc(/C=C/C(=O)c2ccccc2)ccc1O` [CK-4, 3-(4′-Hydroxy-3′-methoxy-phenyl)-1-phenyl-prop-2-ene-1-one] gave an MIC with A. viscosus greater than 100 µg/mL.

In the case of `Oc1cc(Cl)ccc1Oc1ccc(Cl)cc1Cl` [Triclosan, triclosan], the “MIC” value amounted to 2.0 µg/mL in the test with Actinomyces viscosus (with CK-4 6.25 μg/ml); 1.0 µg/mL with Actinomyces viscosus (with CK-4 12.5 μg/ml); 0.5 µg/mL in the test on Actinomyces viscosus (with CK-4 25 μg/ml); 4 µg/mL in the test on Actinomyces viscosus (Actinomyces viscosus, agent alone, read-out: MIC); 1.0 µg/mL with Fusobacterium nucleatum (with CK-4 6.25 μg/ml); 1.0 µg/mL with Fusobacterium nucleatum (with CK-4 12.5 μg/ml). In addition, the “MIC” value with Fusobacterium nucleatum (with CK-4 25 μg/ml) is 0.5 µg/mL; in the test on Fusobacterium nucleatum (Fusobacterium nucleatum, agent alone, read-out: MIC) it was 2 µg/mL; in the test with Streptococcus mutans (with CK-4 6.25 μg/ml), 2.0 µg/mL; in the test on Streptococcus mutans (with CK-4 12.5 μg/ml) it was 1.0 µg/mL; in the test on Streptococcus mutans (with CK-4 25 μg/ml), 0.5 µg/mL; with Streptococcus mutans (Streptococcus mutans, agent alone, read-out: MIC) it was 4 µg/mL. The molecule further showed an MIC against A. viscosus of 3.5 µg/mL (≈ 12.1 µM). The molecule further showed a BEC50 alone with A. Viscosus biofilm (agent alone) of 1.95. For the same molecule, the “BEC50 with CK-4” value in the test on A. Viscosus biofilm (with CK-4) came out at 0.98. For the same molecule, the “reduction in MIC in combination with chalcone compound” value in test [1] is “Four to eight-fold”.
